Measurements published in patent publication US9133117B2, “Triple reuptake inhibitors and methods of their use” (SUNOVION PHARMACEUTICALS INC., priority 2008, dated 2015).
“Also recorded” adds a separate entry of the source.

Columns and labels:
[1] = test system: formalin-induced flinching behavior; experiment: Formalin pain model (flinching behavior); type: in vivo, rat; conditions: 60 min before formalin
Procedure: Effects of (3aR,6aS)-3a-(3,4-Dichlorophenyl)octahydrocyclopenta[c]pyrrole on acute and persistent inflammatory pain were evaluated in male rats. Pain was induced experimentally by application of a chemical irritant, formalin, which results in a biphasic behavioral response that includes both early (Phase 1, 0-9 minutes) and late (Phase 2, 10-60 minutes) phase flinching behavior. The early phase response is considered to be the result of C-fiber activation while the late phase appears to be dependent on the combination of an inflammatory response in the tissue and functional changes in the dorsal horn of the spinal cord.
Male rats (Sprague-Dawley, 272-315 g, Harlan) were housed 4 animals per cage in a temperature-controlled environment on a 12-hour light-dark cycle with food and water available ad libitum. Animals were allowed to acclimate to the facility for at least 5 days before testing. On the day of the study, a flexible, light-weight, ‘C’-shaped metal band was applied to one hind paw and the rat was dosed orally (PO, 3 mL/kg, via gavage) or intraperitoneally (IP, 1 mL/kg) with vehicle (50 mM acetate buffer (pH 4.5)), (3aR,6aS)-3a-(3,4-dichlorophenyl)octahydrocyclopenta[c]pyrrole or gabapentin. […] Formalin-induced flinching behavior was recorded for 60 minutes.

[2] = Brain and plasma levels following oral administration; type: in vivo; conditions: 10 mg/kg

Row | SMILES | effect on formalin-induced flinching behavior ([1]; male rats, 3, 10 and 30 mg/kg PO, phase I 0-9 min, phase II 10-60 min) | levels of tested compounds in brain (order of lines in FIG. 1) [2] | ratio of brain and plasma levels (order of lines in FIG. 2) [2] | effect on formalin-induced flinching behavior (positive control) ([1]; male rats, 100 mg/kg IP)
1 | Clc1ccc([C@@]23CCC[C@@H]2CNC3)cc1Cl [(3aR,6aS)-3a-(3,4-Dichlorophenyl)octahydrocyclopenta[c]pyrrole] | significant, dose-related decrease in flinching behavior during phases I and II; also recorded: significantly and dose-dependently attenuated formalin-induced flinching behavior in a non-selective manner |  |  | 
2 | CN1C[C@H]2CCC[C@@]2(c2ccc(Cl)c(Cl)c2)C1 [(3aR,6aS)-3a-(3,4-dichlorophenyl)-2-methyloctahydrocyclopenta[c]pyrrole] |  | fourth line | fourth line | 
3 | CN1C[C@H]2CCCC[C@@]2(c2ccc(Cl)c(Cl)c2)C1 [(3aR,7aS)-3a-(3,4-Dichlorophenyl)-2-methyloctahydro-1H-isoindole] |  | top line | second line | 
4 | CN1C[C@@H]2CCC[C@]2(c2ccc(Cl)c(Cl)c2)C1 [(3aS,6aR)-3a-(3,4-dichlorophenyl)-2-methyloctahydrocyclopenta[c]pyrrole] |  | third line | third line | 
5 | CN1C[C@@H]2CCCC[C@]2(c2ccc(Cl)c(Cl)c2)C1 [(3aS,7aR)-3a-(3,4-Dichlorophenyl)-2-methyloctahydro-1H-isoindole] |  | second line | top line | 
6 | NCC1(CC(=O)O)CCCCC1 [Gabapentin, reference compound] |  |  |  | significant and selective attenuation of phase II formalin-induced flinching behavior
